Data published in US20230133672A1, “FUSION POLYPEPTIDE COMPRISING GDF15 AND POLYPEPTIDE REGION CAPABLE OF O-GLYCOSYLATION” (LG CHEM, LTD., priority 2019, published 2023).

Legend:
[1] = Single administration: body weight change in DIO mice; type: in vivo, Mouse, C57BL/6J-DIO; conditions: for Body Weight (Group, % of initial): daily s.c. injection, mean
Procedure: (§1) The pharmacological effect of the fusion polypeptides produced and purified in Example 1 above was tested in mice (C57BL/6J, 6-week-old, male, 100 mice; Raonbio).
(§2) In the present example, DI0 mouse model (Mouse, C57BL/6J-DIO, male, 100 mice, 14-week-old (obesity feed feeding for 8 weeks)) in which obesity was induced by feeding a high-fat diet into the C57BL/6J mice for 8 weeks was used.
(§3) The administration of the test substances HT-ID1-GDF15, HT-ID2-GDF15, and HT-ID3-GDF15 and the control substance Semaglutide (Bachem) was conducted from the next day after group separation, and the administration time was performed at 9 AM every day. Subcutaneous administration was conducted for all the control substance and test substances. For the administration route of the control substance and test substances, subcutaneous administration was selected depending on the clinically scheduled administration route.
(§4) For all the control substance and test substances, the amount of the administration solution was set to 5 mL/kg and the administration liquid by individual was calculated on the basis of the recently measured body weight and it was administered by subcutaneous injection once on the start day of the test using a disposable syringe (1 mL). The test substances were administered only once. For comparison, the control group in which the control substance Semaglutide was administered was prepared, and the comparison group in which Semaglutide was administered was administered once a day, and all the administration was progressed from 9 AM.
As for the observation, measurement and test schedule for the test groups, the administration start date was set to Day 0, and 7 days from the administration start date were set to one week of administration.
(§5) The body weight of each mouse was measured on the day of the start of administration of the test substances (before administration), and thereafter, the body weight was measured every day (measured up to 9 days), and the amount of the administration solution of the test substances was determined on the basis of the most recently measured body weight.
(§6) All the experimental results obtained in the present example were expressed as mean±standard error and tested using Prism5 (version 5.01). One-way analysis of variance (ANOVA) was performed on all data, and when significance was observed, Dunnett's test was performed to find out the test groups with a significant difference from the control group (significance level: two-sided 5% and 1%, 0.1%).

[2] = Single administration: feed intake in DIO mice; type: in vivo, Mouse, C57BL/6J-DIO; design: unit not given here
Procedure: as §1, §2, §3, §4
(§7) In addition, after administering the test substances into mice, the daily feed intake was measured, and the feeding amount was measured using an electronic scale for each breeding box, and the remaining amount was measured to calculate the daily feed intake. In case of an individual that gnawed heavily on heed, it was excluded from the measurement.
as §6

[3] = Repeated administration: feed intake in DIO mice; type: in vivo, Mouse, C57BL/6J-DIO; design: unit not given here
Procedure: as §7, §6
(§8) Except for the administration dose, animal number and administration cycle, most of the test processes were the same as in Example 2.1.1 above.
(§9) The test substances were administered twice a week (Days 0, 4, 7, 11, 14, 18, 21, 25) for a total of 8 times. For comparison, the control group in which the control substance Semaglutide was administered every day was prepared, and the comparison group in which Semaglutide was administered every day was administered once a day daily, and all the administration was progressed from 9 AM.

[4] = Repeated administration: body weight change in DIO mice; type: in vivo, Mouse, C57BL/6J-DIO
Procedure: as §5, with “([…]),” for “(measured up to 9 days),”
as §6, §8, §9

[5] = Pharmacokinetic test, subcutaneous administration to SD rats (serum ELISA, Human GDF15 Immunoassay); type: in vivo; conditions: 2 mg/kg subcutaneous
Procedure: For evaluation of pharmacokinetic characteristics when each fusion polypeptide was subcutaneously administered to rats, the fusion polypeptides HT-ID1-GDF15, HT-ID2-GDF15 and HT-ID3-GDF15 were subcutaneously administered into SD rats (Koatech, male, 7-week-old, about 250 g; n=3 each; test group) in an amount of 2 mg/kg, respectively, and about 200 μl of blood was collected through the caudal vein at a predetermined time. The blood collection time was performed before administration, and 1, 2, 4, 8, 24, 48, 72, 96, 168, 240 and 336 hours after administration. As the control group for comparison of pharmacokinetic characteristics, GDF15 (R&D Systems) was subcutaneously administered in an amount of 2 mg/kg by the same method to prepare a GDF15 administration group.
After administering into SD Rats as above, blood collected by time-point was centrifuged to obtain serum, and ELISA was performed using Human GDF15 Immunoassay (SGD150, R&D Systems), and the concentration in the serum was measured depending on the time of each polypeptide.

Semaglutide [reference compound]
body weight loss effect ([1]; 3 nmol/kg daily s.c. administration): body weight loss effect was continuously shown from Day 1 after administration
Body Weight (Group, % of initial) ([1]; Day 0, 3 nmol/kg): 100 % of initial
Body Weight (Group, % of initial) ([1]; Day 1, 3 nmol/kg): 94 % of initial
Body Weight (Group, % of initial) ([1]; Day 2, 3 nmol/kg): 91 % of initial
Body Weight (Group, % of initial) ([1]; Day 3, 3 nmol/kg): 90 % of initial
Body Weight (Group, % of initial) ([1]; Day 4, 3 nmol/kg): 87 % of initial
Body Weight (Group, % of initial) ([1]; Day 5, 3 nmol/kg): 87 % of initial
Body Weight (Group, % of initial) ([1]; Day 6, 3 nmol/kg): 85 % of initial
Body Weight (Group, % of initial) ([1]; Day 7, 3 nmol/kg): 86 % of initial
Body Weight (Group, % of initial) ([1]; Day 8, 3 nmol/kg): 83 % of initial
Body Weight (Group, % of initial) ([1]; Day 9, 3 nmol/kg): 85 % of initial
Feed intake, Mean ([2]; Day 0, 3 nmol/kg Daily Inj.): 3.7
Feed intake, Mean ([2]; Day 1, 3 nmol/kg Daily Inj.): 2.1
Feed intake, Mean ([2]; Day 2, 3 nmol/kg Daily Inj.): 3.3
Feed intake, Mean ([2]; Day 3, 3 nmol/kg Daily Inj.): 2.8
Feed intake, Mean ([2]; Day 4, 3 nmol/kg Daily Inj.): 2.3
Feed intake, Mean ([2]; Day 5, 3 nmol/kg Daily Inj.): 2.9
Feed intake, Mean ([2]; Day 6, 3 nmol/kg Daily Inj.): 2.7
Feed intake, Mean ([2]; Day 7, 3 nmol/kg Daily Inj.): 3.2
Feed intake, Mean ([2]; Day 8, 3 nmol/kg Daily Inj.): 2.4
Feed intake, Mean ([2]; Day 9, 3 nmol/kg Daily Inj.): 3.7
Feed intake, Mean ([3]; Day 1, 3 nmol/kg once a day): 2.9
Feed intake, Mean ([3]; Day 2, 3 nmol/kg once a day): 0.7
Feed intake, Mean ([3]; Day 3, 3 nmol/kg once a day): 1.3
Feed intake, Mean ([3]; Day 4, 3 nmol/kg once a day): 1.4
Feed intake, Mean ([3]; Day 5, 3 nmol/kg once a day): 1.7
Feed intake, Mean ([3]; Day 6, 3 nmol/kg once a day): 1.5
Feed intake, Mean ([3]; Day 7, 3 nmol/kg once a day): 1.6
Feed intake, Mean ([3]; Day 8, 3 nmol/kg once a day): 1.9
Feed intake, Mean ([3]; Day 9, 3 nmol/kg once a day): 2.0
Feed intake, Mean ([3]; Day 10, 3 nmol/kg once a day): 2.3
Feed intake, Mean ([3]; Day 11, 3 nmol/kg once a day): 2.2
Feed intake, Mean ([3]; Day 12, 3 nmol/kg once a day): 3.2
Feed intake, Mean ([3]; Day 13, 3 nmol/kg once a day): 2.2
Feed intake, Mean ([3]; Day 14, 3 nmol/kg once a day): 2.5
Feed intake, Mean ([3]; Day 15, 3 nmol/kg once a day): 2.5
Feed intake, Mean ([3]; Day 16, 3 nmol/kg once a day): 2.2
Feed intake, Mean ([3]; Day 17, 3 nmol/kg once a day): 2.4
Feed intake, Mean ([3]; Day 18, 3 nmol/kg once a day): 2.2
Feed intake, Mean ([3]; Day 19, 3 nmol/kg once a day): 2.6
Feed intake, Mean ([3]; Day 20, 3 nmol/kg once a day): 2.6
Feed intake, Mean ([3]; Day 21, 3 nmol/kg once a day): 2.5
Feed intake, Mean ([3]; Day 22, 3 nmol/kg once a day): 2.9
Feed intake, Mean ([3]; Day 23, 3 nmol/kg once a day): 2.0
Feed intake, Mean ([3]; Day 24, 3 nmol/kg once a day): 2.4
Feed intake, Mean ([3]; Day 25, 3 nmol/kg once a day): 2.9
Feed intake, Mean ([3]; Day 26, 3 nmol/kg once a day): 2.4
Feed intake, Mean ([3]; Day 27, 3 nmol/kg once a day): 2.4
Feed intake, Mean ([3]; Day 28, 3 nmol/kg once a day): 2.7
Body Weight, Mean ([4]; Day 0, 3 nmol/kg once a day): 100.0 % of initial
Body Weight, Mean ([4]; Day 1, 3 nmol/kg once a day): 93.9 % of initial
Body Weight, Mean ([4]; Day 2, 3 nmol/kg once a day): 92.6 % of initial
Body Weight, Mean ([4]; Day 3, 3 nmol/kg once a day): 90.4 % of initial
Body Weight, Mean ([4]; Day 4, 3 nmol/kg once a day): 88.4 % of initial
Body Weight, Mean ([4]; Day 5, 3 nmol/kg once a day): 66.2 % of initial
Body Weight, Mean ([4]; Day 6, 3 nmol/kg once a day): 64.1 % of initial
Body Weight, Mean ([4]; Day 7, 3 nmol/kg once a day): 82.6 % of initial
Body Weight, Mean ([4]; Day 8, 3 nmol/kg once a day): 61.9 % of initial
Body Weight, Mean ([4]; Day 9, 3 nmol/kg once a day): 80.7 % of initial
Body Weight, Mean ([4]; Day 10, 3 nmol/kg once a day): 80.3 % of initial
Body Weight, Mean ([4]; Day 11, 3 nmol/kg once a day): 80.3 % of initial
Body Weight, Mean ([4]; Day 12, 3 nmol/kg once a day): 79.1 % of initial
Body Weight, Mean ([4]; Day 13, 3 nmol/kg once a day): 76.8 % of initial
Body Weight, Mean ([4]; Day 14, 3 nmol/kg once a day): 76.7 % of initial
Body Weight, Mean ([4]; Day 15, 3 nmol/kg once a day): 78.1 % of initial
Body Weight, Mean ([4]; Day 16, 3 nmol/kg once a day): 78.3 % of initial
Body Weight, Mean ([4]; Day 17, 3 nmol/kg once a day): 77.2 % of initial
Body Weight, Mean ([4]; Day 18, 3 nmol/kg once a day): 76.7 % of initial
Body Weight, Mean ([4]; Day 19, 3 nmol/kg once a day): 77.1 % of initial
Body Weight, Mean ([4]; Day 20, 3 nmol/kg once a day): 76.1 % of initial
Body Weight, Mean ([4]; Day 21, 3 nmol/kg once a day): 76.8 % of initial
Body Weight, Mean ([4]; Day 22, 3 nmol/kg once a day): 75.9 % of initial
Body Weight, Mean ([4]; Day 23, 3 nmol/kg once a day): 75.6 % of initial
Body Weight, Mean ([4]; Day 24, 3 nmol/kg once a day): 76.0 % of initial
Body Weight, Mean ([4]; Day 25, 3 nmol/kg once a day): 76.3 % of initial
Body Weight, Mean ([4]; Day 26, 3 nmol/kg once a day): 76.5 % of initial
Body Weight, Mean ([4]; Day 27, 3 nmol/kg once a day): 76.2 % of initial
Body Weight, Mean ([4]; Day 28, 3 nmol/kg once a day): 75.7 % of initial

rhGDF15: GDF15 (R&D Systems), not fused, control group for comparison of pharmacokinetic characteristics
half-life [5]: 19 h
AUCextp (%) [(AUCinf − AUClast)/AUCinf]*100 ([5]; serum): 0.463%
AUClast ([5]; serum): 4860 ng·h/mL
Cmax (maximum concentration in blood) ([5]; serum): 443 ng/mL
Tmax (reaching time to maximum concentration in blood) ([5]; serum): 1 h
t1/2 (loss half-life) ([5]; serum): 19.0 h
AUCinf ([5]; serum, extrapolated to infinity): 4880 ng·h/mL
